Here are results for four molecules from article PMC12797170, “Potent Competitive Inhibitors of Ecto-5′-nucleotidase (CD73) based on 6‑(Het)aryl-7-deazapurine Ribonucleoside 5′‑O‑Bisphosphonates” (ACS Pharmacology & Translational Science, 2025).

One data set has as its target T1, CYP1A2 (Homo sapiens, UniProt P05177).
T1 construct: assay run by Bienta (Enamine Biology Services)
T1 sequence (P05177 2-516 limits assumed): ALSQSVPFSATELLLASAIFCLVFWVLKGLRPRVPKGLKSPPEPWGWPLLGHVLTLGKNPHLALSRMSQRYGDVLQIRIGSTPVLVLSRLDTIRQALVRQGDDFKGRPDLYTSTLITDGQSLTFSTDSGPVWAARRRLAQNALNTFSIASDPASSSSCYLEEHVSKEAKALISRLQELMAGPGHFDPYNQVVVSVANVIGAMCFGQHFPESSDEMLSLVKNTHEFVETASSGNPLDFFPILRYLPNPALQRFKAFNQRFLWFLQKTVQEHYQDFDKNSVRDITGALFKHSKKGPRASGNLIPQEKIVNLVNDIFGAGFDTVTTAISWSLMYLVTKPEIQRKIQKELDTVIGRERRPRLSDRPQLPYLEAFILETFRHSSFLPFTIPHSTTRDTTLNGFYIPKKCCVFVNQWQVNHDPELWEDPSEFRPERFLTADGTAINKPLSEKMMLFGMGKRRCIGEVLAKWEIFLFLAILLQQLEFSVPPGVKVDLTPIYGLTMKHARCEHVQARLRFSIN
As to the kind of experiment: In vitro CYP450 inhibition assay (Vivid). Format: biochemical. To be noted: probe fluorogenic Vivid CYP450 substrate (not named). As for the experimental part: (§1) The study was performed by Bienta (Enamine Biology Services). The potential for CYP450 inhibition (isoforms 1A2, 2C9, 2C19, 2D6, and 3A4) was assessed by performing in vitro inhibition studies using fluorogenic CYP450 substrates with the corresponding CYP450 enzymes and NADPH regeneration system (Vivid CYP450 Screening Kits) with some minor changes to the manufacturer’s protocols. The fluorescent signal produced from the reaction is directly proportional to the cytochrome P450 activity. In the cases when tested compounds interfere with the CYP450 enzyme–substrate reaction, the fluorescent signal decreases.
(§2) Briefly, the tested compounds were first dissolved in DMSO at 100× concentration (1 mM) and diluted in buffer to 2.5× concentration (25 μM). […] After 10 min of preincubation, the enzymatic reaction was initiated by the addition of a mix of NADPH and the appropriate CYP450 substrates. The plate was incubated for the desired reaction time (25 min for CYP1A2, CYP2C9, CYP2D6, and CYP3A4; 60 min for CYP2C19) after which Stop Reagent was added and fluorescence measured using SpectraMax Paradigm Multi-Mode Microplate Reader. All test points were performed in quadruplicates at a concentration of 10 μM (1% DMSO).

The target of the next data set is T2, CYP2C19 (Homo sapiens, UniProt P33261).
T2 construct: assay run by Bienta (Enamine Biology Services)
As to the kind of experiment: In vitro CYP450 inhibition assay (Vivid). Format: biochemical. The settings on record: probe fluorogenic Vivid CYP450 substrate (not named). As for the experimental part:
as §1, §2

A further data set concerns the target T3, CYP2D6 (Homo sapiens, UniProt P10635).
T3 construct: assay run by Bienta (Enamine Biology Services)
As to the kind of experiment: In vitro CYP450 inhibition assay (Vivid). The data set is classed as biochemical. To be noted: probe fluorogenic Vivid CYP450 substrate (not named). On the procedure: as §1, §2

The next data set addresses T4, CYP2C9 (Homo sapiens, UniProt P11712).
T4 construct: assay run by Bienta (Enamine Biology Services)
As to the kind of experiment: In vitro CYP450 inhibition assay (Vivid). The data set is classed as biochemical. To be noted: probe fluorogenic Vivid CYP450 substrate (not named). On the procedure:
as §1, §2

A further data set has as its target T5, CYP3A4 (Homo sapiens, UniProt P08684).
T5 construct: assay run by Bienta (Enamine Biology Services)
In words: In vitro CYP450 inhibition assay (Vivid). Format: biochemical. The settings on record: probe fluorogenic Vivid CYP450 substrate (not named). On the procedure: as §1, §2

Data set [1] can be described thus: Plasma protein binding, mouse plasma. Format: in vitro ADME. The settings on record: mouse, plasma.
A short description of data set [2]: Plasma protein binding, equilibrium dialysis, human plasma. The settings on record: undiluted plasma. Format: in vitro ADME.
The nature of a further data set: in vitro. The settings on record: mouse, plasma.
Data set [3] has as its system panel of CYP isoforms (1A2, 2C9, 2C19, 2D6, and 3A4). In words: CYP450 inhibition, panel statement. Format: biochemical, human. To be noted: up to 50 μM. On the procedure:
as §1, §2

The subject of a further data set is CCRF-CEM. In words: In vitro cytotoxic activity. Format: cell-based. To be noted: Homo sapiens. On the procedure:
(§3) All the compounds were also tested for their in vitro cytotoxic activity on a small panel of four cancer cell lines (CCRF-CEM, HepG2, HeLa S3, HL-60) and nonmalignant human dermal fibroblasts (NHDF).

A further data set relates to HeLa S3. In words: In vitro cytotoxic activity. The data set is classed as cell-based. The settings on record: Homo sapiens. On the procedure:
as §3

For another data set, the system named is HL-60. In words: In vitro cytotoxic activity. The data set is classed as cell-based. To be noted: Homo sapiens. As for the experimental part: as §3
The subject of another data set is HepG2. In words: In vitro cytotoxic activity. To be noted: Homo sapiens. The data set is classed as cell-based. On the procedure: as §3
Data set [4] has as its system nonmalignant human dermal fibroblasts (NHDF). In words: In vitro cytotoxic activity. Format: cell-based. On the procedure:
as §3

A short description of data set [5]: Microsomal stability assay, human liver microsomes. Format: in vitro ADME. To be noted: for Mics (hu) comp remaining 60 min: 10 μM; for microsomal CLint at 10 µM: pooled liver microsomes, pH 7.4, read-out: Mics (hu) CLint. (In general: Microsomes from liver hold many membrane-bound enzymes, among them those of drug oxidation.)
Setting [6] is: Tables 2 and 4, mouse plasma, read-out: fup, fraction unbound in mouse plasma.
The mark [7] stands for this setting: mouse plasma protein binding, read-out: PPB (m) (converted).
[8] abbreviates: human plasma protein binding, read-out: PPB (hu) (converted).
[9] abbreviates: Tables 1 and 3, human plasma as printed in footnote, read-out: fup, fraction unbound in human plasma.

T5 sequence (P08684 2-503 limits assumed): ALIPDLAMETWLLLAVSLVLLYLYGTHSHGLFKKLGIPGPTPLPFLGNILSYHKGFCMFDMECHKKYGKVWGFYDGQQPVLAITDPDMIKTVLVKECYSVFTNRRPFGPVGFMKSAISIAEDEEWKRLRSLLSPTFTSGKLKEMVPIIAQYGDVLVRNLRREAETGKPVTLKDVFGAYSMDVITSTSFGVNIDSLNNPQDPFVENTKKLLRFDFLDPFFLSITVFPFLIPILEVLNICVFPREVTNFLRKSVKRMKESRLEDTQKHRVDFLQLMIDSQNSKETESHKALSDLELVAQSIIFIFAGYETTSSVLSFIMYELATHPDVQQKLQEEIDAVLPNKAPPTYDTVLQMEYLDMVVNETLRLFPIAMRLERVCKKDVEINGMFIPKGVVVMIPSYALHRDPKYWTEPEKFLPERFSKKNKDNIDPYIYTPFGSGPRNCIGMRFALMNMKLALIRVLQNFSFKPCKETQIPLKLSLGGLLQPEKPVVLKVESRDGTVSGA
T2 sequence (P33261 whole entry): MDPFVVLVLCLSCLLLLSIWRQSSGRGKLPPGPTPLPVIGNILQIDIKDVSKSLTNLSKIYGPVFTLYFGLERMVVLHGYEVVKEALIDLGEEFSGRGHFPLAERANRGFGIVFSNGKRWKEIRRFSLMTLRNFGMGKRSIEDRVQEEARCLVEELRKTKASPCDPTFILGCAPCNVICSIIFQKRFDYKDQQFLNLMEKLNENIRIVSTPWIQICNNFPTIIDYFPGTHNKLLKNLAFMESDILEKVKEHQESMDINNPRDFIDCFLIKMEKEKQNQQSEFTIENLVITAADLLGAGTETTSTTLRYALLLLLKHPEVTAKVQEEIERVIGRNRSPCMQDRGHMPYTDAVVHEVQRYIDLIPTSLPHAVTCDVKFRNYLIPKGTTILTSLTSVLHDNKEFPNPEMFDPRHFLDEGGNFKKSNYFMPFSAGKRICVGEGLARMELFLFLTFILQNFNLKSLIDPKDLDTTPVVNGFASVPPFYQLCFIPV
T4 sequence (P11712 whole entry): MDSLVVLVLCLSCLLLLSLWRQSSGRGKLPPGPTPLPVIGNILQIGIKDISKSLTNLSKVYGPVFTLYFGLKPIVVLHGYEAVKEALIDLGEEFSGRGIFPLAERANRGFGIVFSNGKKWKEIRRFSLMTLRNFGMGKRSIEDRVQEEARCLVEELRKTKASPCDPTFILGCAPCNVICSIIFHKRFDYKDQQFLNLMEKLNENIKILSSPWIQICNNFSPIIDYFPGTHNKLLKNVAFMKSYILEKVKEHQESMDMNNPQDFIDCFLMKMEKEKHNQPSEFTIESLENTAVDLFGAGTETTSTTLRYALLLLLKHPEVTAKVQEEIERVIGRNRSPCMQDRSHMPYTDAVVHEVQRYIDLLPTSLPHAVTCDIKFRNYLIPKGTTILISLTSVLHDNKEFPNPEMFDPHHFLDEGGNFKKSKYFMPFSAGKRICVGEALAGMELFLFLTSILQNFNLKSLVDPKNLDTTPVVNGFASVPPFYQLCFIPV
T3 sequence (P10635 whole entry): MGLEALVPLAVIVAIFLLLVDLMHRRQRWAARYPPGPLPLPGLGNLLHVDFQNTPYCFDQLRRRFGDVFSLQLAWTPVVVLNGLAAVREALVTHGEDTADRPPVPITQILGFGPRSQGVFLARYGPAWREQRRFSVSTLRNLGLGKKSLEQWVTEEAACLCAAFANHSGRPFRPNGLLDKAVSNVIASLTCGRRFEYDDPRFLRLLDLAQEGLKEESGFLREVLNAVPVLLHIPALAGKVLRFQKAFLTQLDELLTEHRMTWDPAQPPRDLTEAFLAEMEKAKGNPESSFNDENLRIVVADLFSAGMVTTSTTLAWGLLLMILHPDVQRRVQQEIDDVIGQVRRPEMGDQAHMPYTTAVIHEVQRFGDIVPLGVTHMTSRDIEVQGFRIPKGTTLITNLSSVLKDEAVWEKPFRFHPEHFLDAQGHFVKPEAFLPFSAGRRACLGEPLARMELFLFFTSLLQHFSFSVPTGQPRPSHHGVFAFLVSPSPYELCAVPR

As a reminder, the inhibition is the change of the read-out against control, counted positive when it falls. The term half-life denotes the time in which the quantity being followed falls by half. A lower half-life goes with rapid decline. What is called IC50 is the concentration that inhibits the measured activity by half. With `Cc1nc(-c2cccc3ccccc23)c2ccn([C@@H]3O[C@H](COP(=O)(O)CP(=O)(O)O)[C@@H](O)[C@H]3O)c2n1` [18E.6], the inhibition at 25 min, 10 µM is 8% against CYP1A2, -18% against CYP2D6, 12% at CYP2C9 and 0% at CYP3A4. Besides, the inhibition at 60 min, 10 µM at CYP2C19 was -20%. In addition, the fraction unbound at 4 h, 100 µM in data set [1] (setting [6]) was 0.51; in [1] (setting [7]), 0.515; in data set [2] (setting [8]), 0.045. This molecule also gave a half-life at 10 µM in “in vitro” greater than 2 h. In data set [3], the “inhibition of a panel of CYP isoforms” value is “no inhibition”. Moreover, the IC50 (in the data set on CCRF-CEM; in the data set on HeLa S3; in the data set with HL-60; in the data set with HepG2; in [4]) was greater than 10 µM each time. Further, in data set [5], the “Mics (hu) comp remaining 60 min” value was 98%. Further, in data set [5], the microsomal CLint at 10 µM is 1 µL/min/mg.

As to `O=P(O)(O)CP(=O)(O)OC[C@H]1O[C@@H](n2ccc3c(-c4ccc5c(c4)CCCC5)nc(Cl)nc32)[C@H](O)[C@@H]1O` [7B.23], the inhibition at 25 min, 10 µM was -17% against CYP1A2, 6% on CYP2D6, 21% on CYP2C9 and -23% against CYP3A4. Further, the inhibition at 60 min, 10 µM against CYP2C19 came to 3%. In addition, the fraction unbound at 4 h, 100 µM was 0.06 in data set [1] (setting [6]), 0.059 in [1] (setting [7]) and no more than 0.01 in data set [2] (setting [8]). Also, in the data set “in vitro”, the half-life at 10 µM is greater than 2 h. For the same molecule, the “inhibition of a panel of CYP isoforms” value in [3] was “no inhibition”. For the same molecule, the IC50 was greater than 10 µM in the data set with CCRF-CEM; greater than 10 µM with HeLa S3; 5.7 µM in the data set on HL-60; 9.3 µM in the data set with HepG2; greater than 10 µM in data set [4]. Also, the “Mics (hu) comp remaining 60 min” value in data set [5] is on record as 124%. The microsomal CLint at 10 µM in data set [5] was less than 1 µL/min/mg.

With `O=P(O)(O)CP(=O)(O)OC[C@H]1O[C@@H](n2ccc3c(-c4ccc5c(c4)CCCC5)nc(I)nc32)[C@H](O)[C@@H]1O` [27H.23, [(5-{[2-Iodo-4-(5,6,7,8-tetrahydronaphthalen-2-yl)-7H-pyrrolo[2,3-d]pyrimidin-7-yl]-β-D-ribofuranosyl}oxy)phosphonomethyl]phosphonic Acid], the inhibition at 25 min, 10 µM at CYP1A2 was -4%; against CYP2D6, -12%; on CYP2C9, 11%; against CYP3A4 it was -23%. The inhibition at 60 min, 10 µM against CYP2C19 was -7%. In addition, the fraction unbound at 4 h, 100 µM in [1] (setting [7]) was 0.036; in data set [2] (setting [9]), 0.036; in [2] (setting [8]) it was no more than 0.01. The molecule also yielded a half-life at 10 µM in the data set “in vitro” greater than 2 h. Also, the “inhibition of a panel of CYP isoforms” value in [3] is reported as “no inhibition”. For the same molecule, the half-maximal inhibitory concentration (IC50) (in the data set on CCRF-CEM; in the data set on HeLa S3; in the data set on HL-60; in the data set with HepG2; in data set [4]) was greater than 10 µM each time. Besides, in [5], the “Mics (hu) comp remaining 60 min” value stood at 104%. In [5], the microsomal CLint at 10 µM is less than 1 µL/min/mg.

Take `O=P(O)(O)CP(=O)(O)OC[C@H]1O[C@@H](n2ccc3c(-c4ccc5ccccc5c4)ncnc32)[C@H](O)[C@@H]1O` [4A.7]: the inhibition at 25 min, 10 µM on CYP1A2 was 7%; against CYP2D6, -17%; on CYP2C9, 23%; on CYP3A4 it was -7%. Also, the inhibition at 60 min, 10 µM on CYP2C19 turned out to be 10%. In addition, the fraction unbound at 4 h, 100 µM is 0.315 in data set [1] (setting [7]), 0.31 in [2] (setting [9]) and 0.011 in data set [2] (setting [8]). In the data set “in vitro”, this molecule yielded a half-life at 10 µM greater than 2 h. For the same molecule, the “inhibition of a panel of CYP isoforms” value in [3] is “no inhibition”. The IC50 (in the data set on CCRF-CEM; in the data set on HeLa S3; in the data set on HL-60; in the data set with HepG2; in data set [4]) was greater than 10 µM each time.
